Results as given in ChEMBL document CHEMBL3885861, “Open TG-GATES”.

Species: Rattus norvegicus
Test: Open TG-GATES - Regimen: Single
Assay type: toxicity, organism-based, Sprague-Dawley
Parameters: regimen Single, gender Male, age 6 weeks
Settings: in vivo, po, 150 mg/kg, route gavage, dose level Middle; for APTT / Bas / Eos / Fbg / Hb / Ht / Lym / MCH / MCHC / MCV / Mono / Neu / PT / Plat / RBC / Ret / WBC: tissue Blood; for KIDNEY_L / KIDNEY_R / KIDNEY_TOTAL: tissue Kidney; for LIVER: tissue Liver; for A/G / ALP / ALT / AST / BUN / CRE / Ca / Cl / DBIL / GLC / IP / K / LDH / Na / PL / RALB / TBIL / TC / TG / TP / gamma-GTP: tissue Plasma

## CCC1(c2ccccc2)C(=O)NC(=O)NC1=O [PHENOBARBITAL]
3 h
  TERMINAL_BW: 224.5 g
  APTT: 19.1 s
  Bas: 0.4%
  Eos: 1%
  Fbg: 217.2 mg/dL
  Hb: 13.8 g/dL
  Ht: 38.5%
  Lym: 82.4%
  MCH: 21.6 pg
  MCHC: 35.8%
  MCV: 60.4 fL
  Mono: 3%
  Neu: 12.6%
  PT: 12 s
  Plat: 129.5 x10_4/uL
  RBC: 637.8 x10_4/ul
  Ret: 7.8%
  WBC: 81.1 x10_2/uL
  KIDNEY_L: 1 g
  KIDNEY_R: 1 g
  KIDNEY_TOTAL: 2 g
  LIVER: 10.3 g
  A/G: 1.7
  ALP: 765.6 IU/L
  ALT: 39 IU/L
  AST: 66.4 IU/L
  BUN: 8.8 mg/dL
  CRE: 0.3 mg/dL
  Ca: 10.7 mg/dL
  Cl: 101.2 meq/L
  DBIL: 0.064 mg/dL
  GLC: 184.4 mg/dL
  IP: 9.8 mg/dL
  K: 4.4 meq/L
  LDH: 149.4 IU/L
  Na: 139.8 meq/L
  PL: 145.4 mg/dL
  RALB: 3.3 g/dL
  TBIL: 0.1 mg/dL
  TC: 71.4 mg/dL
  TG: 73.2 mg/dL
  TP: 5.3 g/dL
  gamma-GTP: 1 IU/L
6 h
  TERMINAL_BW: 221.3 g
  APTT: 20.4 s
  Bas: 0.2%
  Eos: 0.6%
  Fbg: 226 mg/dL
  Hb: 13.8 g/dL
  Ht: 38.1%
  Lym: 79%
  MCH: 21.5 pg
  MCHC: 36.3%
  MCV: 59.3 fL
  Mono: 3%
  Neu: 15.4%
  PT: 12 s
  Plat: 125.8 x10_4/uL
  RBC: 643 x10_4/ul
  Ret: 7.6%
  WBC: 90 x10_2/uL
  KIDNEY_L: 1 g
  KIDNEY_R: 1 g
  KIDNEY_TOTAL: 2 g
  LIVER: 9.3 g
  A/G: 1.5
  ALP: 756.8 IU/L
  ALT: 28.4 IU/L
  AST: 60.8 IU/L
  BUN: 8.2 mg/dL
  CRE: 0.4 mg/dL
  Ca: 10.7 mg/dL
  Cl: 100.6 meq/L
  DBIL: 0.07 mg/dL
  GLC: 178.2 mg/dL
  IP: 9.7 mg/dL
  K: 4.2 meq/L
  LDH: 178.4 IU/L
  Na: 139.6 meq/L
  PL: 137 mg/dL
  RALB: 3.2 g/dL
  TBIL: 0.1 mg/dL
  TC: 69.2 mg/dL
  TG: 67.6 mg/dL
  TP: 5.3 g/dL
  gamma-GTP: 1.2 IU/L
9 h
  TERMINAL_BW: 219.3 g
  APTT: 20.6 s
  Bas: 0%
  Eos: 0.4%
  Fbg: 215 mg/dL
  Hb: 14.1 g/dL
  Ht: 38.6%
  Lym: 76.6%
  MCH: 22.1 pg
  MCHC: 36.5%
  MCV: 60.5 fL
  Mono: 3%
  Neu: 19%
  PT: 12.2 s
  Plat: 121.6 x10_4/uL
  RBC: 637.8 x10_4/ul
  Ret: 7.7%
  WBC: 96.4 x10_2/uL
  KIDNEY_L: 1 g
  KIDNEY_R: 1 g
  KIDNEY_TOTAL: 2 g
  LIVER: 9.3 g
  A/G: 1.7
  ALP: 593.2 IU/L
  ALT: 26.6 IU/L
  AST: 58.6 IU/L
  BUN: 6.8 mg/dL
  CRE: 0.3 mg/dL
  Ca: 10.4 mg/dL
  Cl: 100 meq/L
  DBIL: 0.066 mg/dL
  GLC: 182 mg/dL
  IP: 9.5 mg/dL
  K: 4.1 meq/L
  LDH: 136 IU/L
  Na: 139.8 meq/L
  PL: 138.8 mg/dL
  RALB: 3.3 g/dL
  TBIL: 0.1 mg/dL
  TC: 70 mg/dL
  TG: 39 mg/dL
  TP: 5.2 g/dL
  gamma-GTP: 1 IU/L
24 h
  TERMINAL_BW: 234 g
  APTT: 19.2 s
  Bas: 0.8%
  Eos: 1%
  Fbg: 214.2 mg/dL
  Hb: 13.9 g/dL
  Ht: 38.4%
  Lym: 79.6%
  MCH: 21.8 pg
  MCHC: 36.2%
  MCV: 60.3 fL
  Mono: 2.2%
  Neu: 16%
  PT: 11.7 s
  Plat: 125.7 x10_4/uL
  RBC: 637 x10_4/ul
  Ret: 6.5%
  WBC: 106.3 x10_2/uL
  KIDNEY_L: 1.1 g
  KIDNEY_R: 1 g
  KIDNEY_TOTAL: 2.1 g
  LIVER: 11.5 g
  A/G: 1.6
  ALP: 882.2 IU/L
  ALT: 33.8 IU/L
  AST: 75.6 IU/L
  BUN: 16 mg/dL
  CRE: 0.4 mg/dL
  Ca: 10.8 mg/dL
  Cl: 102 meq/L
  DBIL: 0.058 mg/dL
  GLC: 180.6 mg/dL
  IP: 7.6 mg/dL
  K: 4.2 meq/L
  LDH: 264.4 IU/L
  Na: 142.4 meq/L
  PL: 142.2 mg/dL
  RALB: 3.5 g/dL
  TBIL: 0.1 mg/dL
  TC: 72 mg/dL
  TG: 113.2 mg/dL
  TP: 5.7 g/dL
  gamma-GTP: 1.2 IU/L
